Laboratory results reported in paper PMC4126514 (Toxicology and applied pharmacology, 2011).

What was measured:
liver of C57BL/6 mice [1] = assay: Liver histopathology; format: in vivo, mouse
liver of C57BL/6 mice [2] = assay: Hepatic triglyceride measurement; format: in vivo, mouse
[3] = liver, after seven days; ref Kopec et al. 2010b; cited from earlier work
C57BL/6 mice = assay: Organ and body weights; format: in vivo, mouse; details: 24 h dose-response study
hepatic gene expression = details: liver, 300 mg/kg PCB153; ref Kopec et al. 2010b; cited from earlier work
AhR = details: ref Craft et al. 2002; Honkakoski et al. 2003; Tabb et al. 2004; Kopec et al. 2010b; cited from earlier work
[4] = ref Diliberto et al. 1999; cited from earlier work
liver = details: when co-treated with TCDD; ref Mitchell et al. 2010; cited from earlier work

Row | SMILES | hepatic inflammation (liver of C57BL/6 mice [1]; time course study) | hepatocellular hypertrophy (liver of C57BL/6 mice [1]; time course study) | hepatocellular vacuolization (liver of C57BL/6 mice [1]; time course study) | hepatic triglycerides (liver of C57BL/6 mice [2]) | hepatic level at 168 h [3] | relative liver weight (RLW) (C57BL/6 mice) | down-regulation of Elovl5 (hepatic gene expression) | AhR binding or activation (AhR) | hepatic TCDD accumulation, fold lower in Cyp1a2 null mice compared to wild types [4] | hepatic inflammation / cell infiltration (liver of C57BL/6 mice [1]; 24 h dose-response, TCDD 15, 30, 45 μg/kg, MIX three highest combinations) | increase in hepatic proliferation (liver)
1 | Clc1cc(Cl)c(-c2cc(Cl)c(Cl)cc2Cl)cc1Cl [PCB153, 2,2′,4,4′,5,5′-hexachlorobiphenyl] | did not elicit inflammation | mild to moderate centrilobular hypertrophy | vacuolization comparable to levels observed in vehicles | no effect | dramatically decreased | increased RLW only at 100 and 300 mg/kg | ~ 2 fold | does not bind or activate | – | – | –
2 | Clc1cc2c(cc1Cl)Oc1cc(Cl)c(Cl)cc1O2 [TCDD, 2,3,7,8-tetrachlorodibenzo-p-dioxin] | moderate multifocal inflammation | – | marked hepatocellular vacuolization | significant increases | more modest reductions | comparable increases in RLW in all but the lowest dose groups | – | – | 10 fold | minimal multifocal inflammation | –
3 | Clc1cnc(Oc2ccc(Oc3ncc(Cl)cc3Cl)cc2)c(Cl)c1 [TCPOBOP] | – | – | – | – | – | – | – | – | – | – | 30–50%
